{
  "source": "PubChem BioAssay AID588640",
  "about": "(The Scripps Research Institute Molecular Screening Center, 2011)",
  "system": "HCT116 p38 protein level, western blot, 24 h",
  "assay": "total p38 protein level change, either direction, late-stage follow-up, counter-screen for KLF5 inhibitor project, cell-based, HCT116 colorectal carcinoma, chemiluminescent western blot (AID 588640)",
  "settings": "at 10 µM; for inhibition: stronger effect = higher value; for fold change: measured here: p38 band fold change vs DMSO",
  "note": "The source made the active and inactive calls.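 The calls were made as follows: active = p38 protein level shifted at least 30% from the DMSO control, either lower or higher; inactive = the rest.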",
  "data": [
    {"smiles": "CN(C(=O)CNC(=O)/C=C/c1cccc(Cl)c1)C1CCS(=O)(=O)C1", "note": "(stereo unspecified)", "values": [
      {"measurement": "inhibition", "value": "-15.7% (inactive)"},
      {"measurement": "fold change", "value": 1.16}
    ]},
    {"smiles": "CN(C(=O)CNC(=O)/C=C/c1cccc(Cl)c1)C1CCS(=O)(=O)CC1", "values": [
      {"measurement": "inhibition", "value": 35.2, "unit": "%"},
      {"measurement": "fold change", "value": 0.647}
    ]},
    {"smiles": "CN(C(=O)COC(=O)/C=C/c1cccc([N+](=O)[O-])c1)C1CCS(=O)(=O)C1", "note": "(stereo unspecified)", "values": [
      {"measurement": "inhibition", "value": 36.3, "unit": "%"},
      {"measurement": "fold change", "value": 0.658}
    ]}
  ]
}
